Assay results taken from publication PMC11672152 (JACS Au, 2024).

Columns and labels:
[1] = In vitro 1O2-scavenging capacity; assay type: biochemical; settings: amino acid 80 μM; normalized to Cys; Figure S18
[2] = system: ^1O2 in chloroplasts of N. benthamiana leaf discs; assay: In vivo 1O2 level in chloroplasts of leaf discs; assay type: cell-based, Nicotiana benthamiana; settings: MV 0.35 μM, SOSG 10 μM; MV(+) vs MV(−); n = 8; Figure S22
[3] = system: •OH in chloroplasts of N. benthamiana leaf discs; assay: In vivo •OH level in chloroplasts of leaf discs; assay type: cell-based, Nicotiana benthamiana; settings: MV 0.35 μM, HPF 5 μM; MV(+) vs MV(−); n = 8; Figure S22
[4] = In vitro •OH-scavenging capacity; assay type: biochemical; settings: amino acid 80 μM; Cys, Met and Trp compared, normalized to Cys; Figure S18

N[C@@H](CS)C(=O)O [Cys, cysteine]
1O2-scavenging capacity of amino acids compared with Trp [1]: more effective scavengers for ^1O2 than Trp

CSCC[C@H](N)C(=O)O [Met, methionine]
1O2-scavenging capacity of amino acids compared with Trp [1]: more effective scavengers for ^1O2 than Trp

C[n+]1ccc(-c2cc[n+](C)cc2)cc1 [MV, methyl viologen]
effect on cellular levels of 1O2 [2]: did not affect those of ^1O2
effect on cellular levels of •OH [3]: elevated the cellular levels of •OH

N[C@@H](Cc1c[nH]c2ccccc12)C(=O)O [Trp, tryptophan]
•OH-scavenging capacity of amino acids [4]: highest •OH-scavenging capacity
